Measurements reported in US20080227638A1, “Use of abscisic acid to enhance growth control” (priority 2007, published 2008).

Tests used:
Assay type in all cases: in vivo
Tall fescue, cv K-31 = assay: Tall fescue cv K-31 height, ABA and trinexapac-ethyl (Example 6)
Protocol: (§1) Greenhouse studies were conducted at the Research Farm of Valent BioSciences Corporation (Long Grove, Ill.). Grasses were grown in pots (18 cm in diameter and 18 cm in height) filled with Promix BX (available from Premier Horticulture Inc. Quakertown, Pa.). Grass was irrigated daily by an overhead irrigation system. The irrigation system was set up with multiple Tornado Mist Spray Heads (10 GPH at 40 PSI-Wetted diameter, NDS/Raindrip, Woodland Hills, Calif.). Spray heads were 1-meter apart from each other and 75 cm above grass canopy. Grass was cut with a scissor at 2.5 cm height and fertilizer (1 g/L all purpose fertilizer 20-20-20, available from The Scotts Company, Marysville, Ohio) was applied once per week.
(§2) Chemical solutions were prepared with distilled water. Tween 20 (0.05% v/v) was used as an, adjuvant. Both trinexapac-ethyl (commercial product Primo Maxx, 11.3% active ingredient) and paclobutrazol (commercial product Trimmit 2SC, 22.3% active ingredient) were purchased from Syngenta Crop Protection Inc. (Greensboro, N.C.). Uniconazole-P (commercial product Sumagic, 0.55% active ingredient) was obtained from Valent U.S.A. Corporation (Walnut Creek, Calif.).
(§3) When treated with paclobutrazol or uniconazole-P, turfgrass received irrigation within 24 hours after application to flush chemicals to the root zone. After treatment, turfgrasses were arranged in a randomized complete block experimental design. Turfgrass quality, turfgrass height or clip fresh weight was measured on assigned dates. Turfgrass quality was visually rated on a 0-9 scale based on the color, uniformity and density of the grass with 0 as the worst and 9 as the best. Turfgrass height was measured as the distance between canopy surface and soil. Clips were collected from each plot; all plots were cut to a uniform height.
(§4) All experiments were randomized complete block experimental design. Data were analyzed by analysis of variance. Duncan's new multiple range tests at α=0.05 were used for mean separations.

[1] = tested on: Kentucky bluegrass cv Midnight; assay: Kentucky bluegrass cv Midnight height, ABA and trinexapac-ethyl (Example 6); details: 7 days after treatment
Protocol: as §1
Chemical solutions were prepared with distilled water. Tween 20 (0.05% v/v) was used as an, adjuvant. […]
When treated with paclobutrazol or uniconazole-P, turfgrass received irrigation within 24 hours after application to flush chemicals to the root zone. […] Turfgrass quality, turfgrass height or clip fresh weight was measured on assigned dates. […] Turfgrass height was measured as the distance between canopy surface and soil. […]
All experiments were randomized complete block experimental design. Data were analyzed by analysis of variance. […]

Kentucky bluegrass [2] = assay: Greenhouse Kentucky bluegrass height and quality, ABA and paclobutrazol (Example 2); details: 200 ppm ABA
Protocol: as §1, §2, §3, §4
Kentucky bluegrass sod (unknown variety) was purchased from Deak sod farms, Inc. (Union Grove, Wis.). Grass was grown in the greenhouse in pots (n=6 pots per treatment) for establishment before treatment. […] Turfgrass quality was evaluated at 7 days after treatment, and turfgrass height was measured at 7 and 28 days after treatment. Tween 20 (0.05% w/v) was included as an adjuvant. The turfgrass canopy was cut every 7 days during the experimental period.

Bermudagrass = Bermudagrass clip weight, ABA and uniconazole-P (Example 7); details: 200 ppm ABA; 7 days after treatment
Protocol: as §2, §3, §4

Kentucky bluegrass [3] = assay: Greenhouse Kentucky bluegrass height, ABA and uniconazole-P (Example 3); details: 200 ppm ABA
Protocol: as §1, §2, §3, §4
Kentucky bluegrass sod (unknown variety) was purchased from Deak sod farms, Inc. (Union Grove, Wis.). Grass was grown in the greenhouse in pots (n=6 pots per treatment) for establishment before treatment. […] Tween 20 (0.05% w/v) was included as an adjuvant. The turfgrass was cut every 7 days.

creeping bentgrass = assay: Golf course green creeping bentgrass height, clip weight and quality, ABA and uniconazole-P (Example 5); details: 200 ppm ABA
Protocol: Field studies were conducted at the nursery green or the practice green at Countryside golf course (Mundelein, Ill.). Both greens were sand based and growing Penncross creeping bentgrass. Grass was managed with typical Illinois golf course management practices.
as §2, §3, §4
Tween 20 (0.05% w/v) was included as an adjuvant.

Molecule	Turfgrass height (Tall fescue, cv K-31; 80 ppm trinexapac-ethyl, 7 days after treatment) [cm]	Turfgrass height (Tall fescue, cv K-31; 80 ppm trinexapac-ethyl, 21 days after treatment) [cm]	Turfgrass height (Tall fescue, cv K-31; 160 ppm trinexapac-ethyl, 7 days after treatment) [cm]	Turfgrass height (Tall fescue, cv K-31; 160 ppm trinexapac-ethyl, 21 days after treatment) [cm]	Turfgrass height ([1]; 80 ppm trinexapac-ethyl) [cm]	Turfgrass height ([1]; 160 ppm trinexapac-ethyl) [cm]	Turfgrass height (Kentucky bluegrass [2]; 7 days after treatment) [cm]	Turfgrass height (Kentucky bluegrass [2]; 28 days after treatment) [cm]	Clip weight (Bermudagrass) [g]	Turfgrass height (Kentucky bluegrass [3]; 7 days after treatment) [cm]	Turfgrass height (Kentucky bluegrass [3]; 42 days after treatment) [cm]	Clip weight (creeping bentgrass; 7 days after treatment) [g]	Turfgrass height (creeping bentgrass; 7 days after treatment) [cm]	Clip weight (creeping bentgrass; 49 days after treatment) [g]	Turfgrass height (creeping bentgrass; 49 days after treatment) [cm]
CCOC(=O)C1CC(=O)C(=C(O)C2CC2)C(=O)C1 (stereo not drawn) [trinexapac-ethyl]	11.8	19.8	9.7	20.1	7.6	6.7									
S-abscisic acid [ABA]							11.7	9.7	1.8	12.3	9.4	2.0	5.0	2.7	4.6
